Results on three molecules are retold here after ChEMBL document CHEMBL5143607, “Discovery and structure-activity relationships of a novel oxazolidinone class of bacterial type II topoisomerase inhibitors” (Bioorg Med Chem Lett, 2022).

As a reminder, the IC50 is the point on the concentration scale where inhibition reaches its midpoint. For orientation: MIC90 means the lowest concentration that inhibits either 90% of growth or 90% of the strains tested, depending on the study. One may read the MIC as the lowest concentration that inhibits growth of the organism. By logD is commonly meant the decadic logarithm of the distribution of all forms, ionised or not, between an organic phase and buffer at a given pH.

SMILES strings stand for the structures. In brackets after ≈: the same amount, converted by molar mass. Some results are limits rather than exact numbers.

Voltage-gated inwardly rectifying potassium channel KCNH2, sequence (Q12809 whole entry): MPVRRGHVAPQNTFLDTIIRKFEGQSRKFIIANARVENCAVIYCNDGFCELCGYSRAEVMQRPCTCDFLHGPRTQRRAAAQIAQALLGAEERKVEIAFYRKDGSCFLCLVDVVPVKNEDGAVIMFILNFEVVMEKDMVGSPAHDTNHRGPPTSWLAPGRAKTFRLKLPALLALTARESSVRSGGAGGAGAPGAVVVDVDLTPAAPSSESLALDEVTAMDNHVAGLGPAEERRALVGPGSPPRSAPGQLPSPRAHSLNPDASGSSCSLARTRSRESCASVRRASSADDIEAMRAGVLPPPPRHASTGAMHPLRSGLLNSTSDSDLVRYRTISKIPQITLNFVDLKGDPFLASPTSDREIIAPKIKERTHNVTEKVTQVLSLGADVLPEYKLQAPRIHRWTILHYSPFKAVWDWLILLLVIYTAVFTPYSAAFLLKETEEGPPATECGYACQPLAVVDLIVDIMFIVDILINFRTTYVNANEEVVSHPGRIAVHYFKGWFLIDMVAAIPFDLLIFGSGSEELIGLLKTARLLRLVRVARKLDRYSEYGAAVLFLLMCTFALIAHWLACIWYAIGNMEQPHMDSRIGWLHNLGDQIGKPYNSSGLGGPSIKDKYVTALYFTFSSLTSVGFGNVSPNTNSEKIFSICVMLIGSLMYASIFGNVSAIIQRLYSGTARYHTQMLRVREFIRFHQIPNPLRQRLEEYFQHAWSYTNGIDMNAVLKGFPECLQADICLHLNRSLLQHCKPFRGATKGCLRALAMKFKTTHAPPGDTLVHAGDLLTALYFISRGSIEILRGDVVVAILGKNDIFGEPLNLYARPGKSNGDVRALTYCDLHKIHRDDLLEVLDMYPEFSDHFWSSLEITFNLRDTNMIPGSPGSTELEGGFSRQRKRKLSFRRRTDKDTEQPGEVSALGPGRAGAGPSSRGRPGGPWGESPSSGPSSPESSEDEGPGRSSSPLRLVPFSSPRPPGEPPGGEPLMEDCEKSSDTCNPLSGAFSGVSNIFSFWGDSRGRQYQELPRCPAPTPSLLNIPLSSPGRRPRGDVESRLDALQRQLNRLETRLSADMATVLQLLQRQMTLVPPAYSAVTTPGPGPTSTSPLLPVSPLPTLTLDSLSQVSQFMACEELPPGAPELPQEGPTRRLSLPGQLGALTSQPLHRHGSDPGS

Test system in one data set: not listed separately
Put plainly: Cytotoxicity against human HepG2 cells assessed as reduction in cell viability for 24 hrs by Celltiter-Glo assay. In kind it is toxicity, cell-based.
Conditions: not given
A general note: ATP-based viability assays read luminescence as a measure of living cells.
For `COc1ccc2ccc(=O)n(CCN[C@@H]3CC[C@@H]4[C@@H](C3)OC(=O)N4c3ccc4c(n3)NC(=O)CO4)c2n1`, the IC50 at 24 h was determined as 64 µg/mL (≈ 126 µM).

In the case of `O=c1ccc2ncc(=O)n3c2n1C[C@H]3CN1CCC(NCc2cc3c(cn2)OCCC3)CC1` [GEPOTIDACIN], the IC50 at 24 h is over 128 µg/mL.

The next data set concerns Escherichia coli. The experiment in a line: Antibacterial activity against Escherichia coli clinical isolate 42 assessed as bacterial growth inhibition by CLSI protocol based assay. In kind it is functional.
Conditions: not given
Take `C[C@H]1COc2c(N3CCN(C)CC3)c(F)cc3c(=O)c(C(=O)O)cn1c23.C[C@H]1COc2c(N3CCN(C)CC3)c(F)cc3c(=O)c(C(=O)O)cn1c23.O` [LEVOFLOXACIN]: the MIC90 turned out to be 16 µg/mL.

Regarding `O=c1ccc2ncc(=O)n3c2n1C[C@H]3CN1CCC(NCc2cc3c(cn2)OCCC3)CC1` [GEPOTIDACIN], the MIC90 turned out to be 4 µg/mL (≈ 8.92 µM).

In another data set the test system is Acinetobacter baumannii. Put plainly: Antibacterial activity against […] Acinetobacter baumannii clinical isolate 43 assessed as bacterial growth inhibition by CLSI protocol based assay. In kind it is functional.
Conditions: not given
On to `C[C@H]1COc2c(N3CCN(C)CC3)c(F)cc3c(=O)c(C(=O)O)cn1c23.C[C@H]1COc2c(N3CCN(C)CC3)c(F)cc3c(=O)c(C(=O)O)cn1c23.O` [LEVOFLOXACIN], for which the MIC90 worked out at 16 µg/mL.

Take `O=c1ccc2ncc(=O)n3c2n1C[C@H]3CN1CCC(NCc2cc3c(cn2)OCCC3)CC1` [GEPOTIDACIN]: the MIC90 was determined as 32 µg/mL (≈ 71.3 µM).

For the next data set, the system named is Escherichia coli. Put plainly: Antibacterial activity against Escherichia coli W4573 assessed as bacterial growth inhibition by CLSI protocol based assay. In kind it is functional.
Conditions: not given
As for `COc1ccc2ccc(=O)n(CCN[C@@H]3CC[C@@H]4[C@@H](C3)OC(=O)N4c3ccc4c(n3)NC(=O)CO4)c2n1`, the MIC came to 0.03 µg/mL (≈ 0.0592 µM).

As to `O=c1ccc2ncc(=O)n3c2n1C[C@H]3CN1CCC(NCc2cc3c(cn2)OCCC3)CC1` [GEPOTIDACIN], the MIC was found to be 0.5 µg/mL (≈ 1.11 µM).

The next data set concerns Pseudomonas aeruginosa. Put plainly: Antibacterial activity against Pseudomonas aeruginosa ATCC 27853 assessed as bacterial growth inhibition by CLSI protocol based assay. In kind it is functional.
Conditions: not given
As for `COc1ccc2ccc(=O)n(CCN[C@@H]3CC[C@@H]4[C@@H](C3)OC(=O)N4c3ccc4c(n3)NC(=O)CO4)c2n1`, the MIC came to 0.25 µg/mL (≈ 0.494 µM).

With `O=c1ccc2ncc(=O)n3c2n1C[C@H]3CN1CCC(NCc2cc3c(cn2)OCCC3)CC1` [GEPOTIDACIN], the minimal inhibitory concentration (MIC) came out at 2 µg/mL (≈ 4.46 µM).

Another data set deals with Escherichia coli. Put plainly: Resistance development in Escherichia coli ATCC25922 assessed as spontaneous resistance frequency at 4 times MIC by resistance development assay.
Conditions: not given
In kind it is functional.
As for `O=c1ccc2ncc(=O)n3c2n1C[C@H]3CN1CCC(NCc2cc3c(cn2)OCCC3)CC1` [GEPOTIDACIN], the Activity is on record as <2 10^-8No_unit.

Another data set deals with Pseudomonas aeruginosa. Put plainly: Antibacterial activity against Pseudomonas aeruginosa clinical isolate 42 assessed as bacterial growth inhibition by CLSI protocol based assay. In kind it is functional.
Conditions: not given
`C[C@H]1COc2c(N3CCN(C)CC3)c(F)cc3c(=O)c(C(=O)O)cn1c23.C[C@H]1COc2c(N3CCN(C)CC3)c(F)cc3c(=O)c(C(=O)O)cn1c23.O` [LEVOFLOXACIN]: the MIC90 is 32 µg/mL.

As for `O=c1ccc2ncc(=O)n3c2n1C[C@H]3CN1CCC(NCc2cc3c(cn2)OCCC3)CC1` [GEPOTIDACIN], the MIC90 was determined as 16 µg/mL (≈ 35.7 µM).

For a further data set, the system named is Klebsiella pneumoniae. The experiment in a line: Antibacterial activity against Klebsiella pneumoniae ATCC 700603 assessed as bacterial growth inhibition by CLSI protocol based assay. In kind it is functional.
Conditions: not given
In the case of `COc1ccc2ccc(=O)n(CCN[C@@H]3CC[C@@H]4[C@@H](C3)OC(=O)N4c3ccc4c(n3)NC(=O)CO4)c2n1`, the MIC is 1 µg/mL (≈ 1.97 µM).

Turning to `O=c1ccc2ncc(=O)n3c2n1C[C@H]3CN1CCC(NCc2cc3c(cn2)OCCC3)CC1` [GEPOTIDACIN], the MIC came to 16 µg/mL (≈ 35.7 µM).

The test system of a further data set is Acinetobacter baumannii. Put plainly: Antibacterial activity against Acinetobacter baumannii NCTC 13420 assessed as bacterial growth inhibition by CLSI protocol based assay. In kind it is functional.
Conditions: not given
Consider `COc1ccc2ccc(=O)n(CCN[C@@H]3CC[C@@H]4[C@@H](C3)OC(=O)N4c3ccc4c(n3)NC(=O)CO4)c2n1`, for which the MIC is 0.06 µg/mL (≈ 0.118 µM).

In the case of `O=c1ccc2ncc(=O)n3c2n1C[C@H]3CN1CCC(NCc2cc3c(cn2)OCCC3)CC1` [GEPOTIDACIN], the MIC amounted to 16 µg/mL (≈ 35.7 µM).

Test system in another data set: not listed separately
The experiment in a line: Protein binding in human plasma by equilibrium dialysis assay. In kind it is ADME, cell-free. The note with it: read-out: PPB (converted).
As for `COc1ccc2ccc(=O)n(CCN[C@@H]3CC[C@@H]4[C@@H](C3)OC(=O)N4c3ccc4c(n3)NC(=O)CO4)c2n1`, the fraction unbound is 0.947.

As for `O=c1ccc2ncc(=O)n3c2n1C[C@H]3CN1CCC(NCc2cc3c(cn2)OCCC3)CC1` [GEPOTIDACIN], the fraction unbound is under 0.7.

Test system in a further data set: not listed separately
Put plainly: Inhibition of Escherichia coli topoisomerase 4 assessed as reduction in decatenation.
Conditions: not given
For the molecule `O=c1ccc2ncc(=O)n3c2n1C[C@H]3CN1CCC(NCc2cc3c(cn2)OCCC3)CC1` [GEPOTIDACIN], the IC50 is 35 nM.

Test system in the next data set: not listed separately
The experiment in a line: Lipophilicity, logD of the compound by shake flask assay. In kind it is physicochemical. The settings on record: octanol/water.
`COc1ccc2ccc(=O)n(CCN[C@@H]3CC[C@@H]4[C@@H](C3)OC(=O)N4c3ccc4c(n3)NC(=O)CO4)c2n1` gave a logD of 1.8.

As for `O=c1ccc2ncc(=O)n3c2n1C[C@H]3CN1CCC(NCc2cc3c(cn2)OCCC3)CC1` [GEPOTIDACIN], the logD was -0.63.

For a further data set, the target named is DNA topoisomerase 2-alpha (Homo sapiens, UniProt P11388). The experiment in a line: Inhibition of human topoisomerase 2 assessed as reduction in decatenation.
DNA topoisomerase 2-alpha, sequence (P11388 whole entry): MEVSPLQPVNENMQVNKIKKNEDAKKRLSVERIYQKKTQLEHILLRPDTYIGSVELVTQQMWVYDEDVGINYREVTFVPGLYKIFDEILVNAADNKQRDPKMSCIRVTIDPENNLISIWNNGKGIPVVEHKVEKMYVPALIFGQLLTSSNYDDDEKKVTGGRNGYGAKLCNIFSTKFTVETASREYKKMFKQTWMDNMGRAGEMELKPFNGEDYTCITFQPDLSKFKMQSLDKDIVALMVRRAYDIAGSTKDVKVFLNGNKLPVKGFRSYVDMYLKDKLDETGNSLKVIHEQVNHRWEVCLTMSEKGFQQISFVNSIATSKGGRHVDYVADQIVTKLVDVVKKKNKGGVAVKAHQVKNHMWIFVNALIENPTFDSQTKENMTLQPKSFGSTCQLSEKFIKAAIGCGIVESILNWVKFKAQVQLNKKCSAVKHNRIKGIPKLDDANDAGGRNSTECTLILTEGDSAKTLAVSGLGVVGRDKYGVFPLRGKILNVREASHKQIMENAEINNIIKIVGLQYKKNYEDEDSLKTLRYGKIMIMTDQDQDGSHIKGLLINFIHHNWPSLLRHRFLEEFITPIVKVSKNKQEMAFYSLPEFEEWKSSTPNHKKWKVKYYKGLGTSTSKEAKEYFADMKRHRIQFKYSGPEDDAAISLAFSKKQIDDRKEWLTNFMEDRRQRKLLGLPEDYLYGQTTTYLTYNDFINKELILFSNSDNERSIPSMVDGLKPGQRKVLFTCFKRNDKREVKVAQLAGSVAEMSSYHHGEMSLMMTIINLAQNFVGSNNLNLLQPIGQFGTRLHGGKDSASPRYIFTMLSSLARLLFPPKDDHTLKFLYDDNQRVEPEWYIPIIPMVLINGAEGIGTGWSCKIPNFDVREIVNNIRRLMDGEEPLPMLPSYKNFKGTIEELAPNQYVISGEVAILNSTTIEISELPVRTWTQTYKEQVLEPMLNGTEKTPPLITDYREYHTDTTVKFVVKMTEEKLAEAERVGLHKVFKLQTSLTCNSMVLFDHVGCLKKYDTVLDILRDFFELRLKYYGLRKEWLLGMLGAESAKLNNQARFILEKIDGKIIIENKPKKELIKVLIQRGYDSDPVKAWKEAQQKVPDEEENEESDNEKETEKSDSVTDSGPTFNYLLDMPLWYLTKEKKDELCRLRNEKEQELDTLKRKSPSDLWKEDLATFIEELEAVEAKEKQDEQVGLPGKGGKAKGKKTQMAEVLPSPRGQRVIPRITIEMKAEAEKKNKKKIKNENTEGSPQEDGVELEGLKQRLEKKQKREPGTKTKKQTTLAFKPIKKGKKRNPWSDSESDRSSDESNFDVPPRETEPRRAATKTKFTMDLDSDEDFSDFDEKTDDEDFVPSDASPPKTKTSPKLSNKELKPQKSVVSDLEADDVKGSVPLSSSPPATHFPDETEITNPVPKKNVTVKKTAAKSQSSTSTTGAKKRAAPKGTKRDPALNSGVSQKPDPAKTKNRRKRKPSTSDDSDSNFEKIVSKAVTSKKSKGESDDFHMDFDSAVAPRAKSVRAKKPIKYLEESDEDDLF
Conditions: not given
Regarding `O=c1ccc2ncc(=O)n3c2n1C[C@H]3CN1CCC(NCc2cc3c(cn2)OCCC3)CC1` [GEPOTIDACIN], the IC50 was 55.2 µM.

The test system of a further data set is Escherichia coli. The experiment in a line: Antibacterial activity against Escherichia coli ATCC25922 assessed as bacterial growth inhibition by CLSI protocol based assay.
Conditions: not given
In kind it is functional.
Take `O=c1ccc2ncc(=O)n3c2n1C[C@H]3CN1CCC(NCc2cc3c(cn2)OCCC3)CC1` [GEPOTIDACIN]: the MIC was found to be 0.03 µg/mL (≈ 0.0669 µM).

Test system in another data set: not listed separately
Put plainly: Protein binding in mouse plasma by equilibrium dialysis assay. In kind it is ADME, cell-free. The settings on record: read-out: PPB (converted). Background: In equilibrium dialysis free small molecules cross a membrane that holds back macromolecules.
As for `O=c1ccc2ncc(=O)n3c2n1C[C@H]3CN1CCC(NCc2cc3c(cn2)OCCC3)CC1` [GEPOTIDACIN], the fraction unbound is under 0.7.

The next data set deals with Staphylococcus aureus. The experiment in a line: Antibacterial activity against Staphylococcus aureus ATCC 29213 assessed as bacterial growth inhibition by CLSI protocol based assay. In kind it is functional.
Conditions: not given
For `COc1ccc2ccc(=O)n(CCN[C@@H]3CC[C@@H]4[C@@H](C3)OC(=O)N4c3ccc4c(n3)NC(=O)CO4)c2n1`, the MIC stood at 0.03 µg/mL (≈ 0.0592 µM).

On to `O=c1ccc2ncc(=O)n3c2n1C[C@H]3CN1CCC(NCc2cc3c(cn2)OCCC3)CC1` [GEPOTIDACIN], for which the MIC was 0.5 µg/mL (≈ 1.11 µM).

The next data set concerns Escherichia coli. Put plainly: Antibacterial activity against Escherichia coli N43 assessed as bacterial growth inhibition by CLSI protocol based assay. In kind it is functional.
Conditions: not given
Consider `COc1ccc2ccc(=O)n(CCN[C@@H]3CC[C@@H]4[C@@H](C3)OC(=O)N4c3ccc4c(n3)NC(=O)CO4)c2n1`, for which the MIC is under 0.004 µg/mL.

With `O=c1ccc2ncc(=O)n3c2n1C[C@H]3CN1CCC(NCc2cc3c(cn2)OCCC3)CC1` [GEPOTIDACIN], the minimum inhibitory concentration (MIC) was 0.015 µg/mL (≈ 0.0334 µM).

A further data set concerns the target Voltage-gated inwardly rectifying potassium channel KCNH2 (Homo sapiens, UniProt Q12809). The experiment in a line: Inhibition of human ERG by Ionworks electrophysiology assay. In kind it is toxicity.
Conditions: not given
Molecule `COc1ccc2ccc(=O)n(CCN[C@@H]3CC[C@@H]4[C@@H](C3)OC(=O)N4c3ccc4c(n3)NC(=O)CO4)c2n1` came in with an IC50 of 10 µM.

Regarding `O=c1ccc2ncc(=O)n3c2n1C[C@H]3CN1CCC(NCc2cc3c(cn2)OCCC3)CC1` [GEPOTIDACIN], the IC50 is over 100 µM.

For a further data set, the system named is Klebsiella pneumoniae. The experiment in a line: Antibacterial activity against Klebsiella pneumoniae clinical isolate 42 assessed as bacterial growth inhibition by CLSI protocol based assay. In kind it is functional.
Conditions: not given
`C[C@H]1COc2c(N3CCN(C)CC3)c(F)cc3c(=O)c(C(=O)O)cn1c23.C[C@H]1COc2c(N3CCN(C)CC3)c(F)cc3c(=O)c(C(=O)O)cn1c23.O` [LEVOFLOXACIN]: the MIC90 worked out at 16 µg/mL.

For the molecule `O=c1ccc2ncc(=O)n3c2n1C[C@H]3CN1CCC(NCc2cc3c(cn2)OCCC3)CC1` [GEPOTIDACIN], the MIC90 turned out to be 16 µg/mL (≈ 35.7 µM).

The next data set concerns Enterobacter cloacae. The experiment in a line: Antibacterial activity against Enterobacter cloacae clinical isolate 41 assessed as bacterial growth inhibition by CLSI protocol based assay. In kind it is functional.
Conditions: not given
Regarding `C[C@H]1COc2c(N3CCN(C)CC3)c(F)cc3c(=O)c(C(=O)O)cn1c23.C[C@H]1COc2c(N3CCN(C)CC3)c(F)cc3c(=O)c(C(=O)O)cn1c23.O` [LEVOFLOXACIN], the MIC90 came to 32 µg/mL.

As for `O=c1ccc2ncc(=O)n3c2n1C[C@H]3CN1CCC(NCc2cc3c(cn2)OCCC3)CC1` [GEPOTIDACIN], the MIC90 is 16 µg/mL (≈ 35.7 µM).
